Consider 14 compounds from PubChem BioAssay (NCI).

Each structure is given as a SMILES string.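 How tested: cells in 96-well plates exposed to compound for 48 hours at five concentrations. The concentration for 50% growth inhibition is given as GI50. TGI is the concentration that stops growth completely.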 A value given as a limit tells only on which side of the number the result lay.

Some test systems named below: NCI-H23 lung; RXF 393 renal; EKVX NSCLC; UO-31 renal; OVCAR-8 ovarian; BT-549 breast; OVCAR-5 ovarian; CAKI-1 renal; MCF7 breast; NCI-H522 lung.
What all share (test): DTP human tumour cell line panel, 48 h

`CCC(=C(c1ccc(OCCN2CCCCC2)cc1)c1ccc(OCCN2CCCCC2)cc1)c1ccc(Cl)cc1`: the GI50 was over 16.7 µM in the test with NCI-H23 lung; 3.08 µM in the test on RXF 393 renal; over 16.7 µM with EKVX NSCLC; 2.32 µM in the test with UO-31 renal; over 16.7 µM in the test on OVCAR-8 ovarian; over 16.7 µM in the test on BT-549 breast. Moreover, the GI50 in the test with OVCAR-5 ovarian is over 16.7 µM; with CAKI-1 renal it was 5.74 µM; with MCF7 breast it was 0.761 µM; in the test on NCI-H522 lung, 7.72 µM. In addition, the TGI in the test with NCI-H23 lung is over 16.7 µM; with RXF 393 renal it was 16.6 µM; in the test with EKVX NSCLC it was over 16.7 µM; in the test with UO-31 renal, 7.87 µM; with OVCAR-8 ovarian, over 16.7 µM; in the test on BT-549 breast, over 16.7 µM. The TGI with OVCAR-5 ovarian, in the test with CAKI-1 renal, in the test on MCF7 breast and in the test with NCI-H522 lung was over 16.7 µM each time.
On to `C[N+]1([O-])C2CCC1CC(OC(=O)C(CO)c1ccccc1)C2` (configuration not stated), for which the concentration for total growth inhibition (TGI) with NCI-H23 lung, in the test with RXF 393 renal, with EKVX NSCLC, in the test on UO-31 renal, in the test with OVCAR-8 ovarian and in the test with BT-549 breast was over 100 µM each time. In addition, the concentration for total growth inhibition (TGI) with OVCAR-5 ovarian, in the test on CAKI-1 renal, in the test with MCF7 breast and in the test with NCI-H522 lung was over 100 µM each time.
Take `Cn1cc(-c2ccc3nc(-c4ccc(CC(=O)Nc5cc(C(C)(C)C)no5)cc4)cnc3c2)cn1`: the GI50 was 0.895 µM in the test on NCI-H23 lung; 0.0195 µM in the test on RXF 393 renal; 0.143 µM in the test on EKVX NSCLC; 0.0521 µM in the test with UO-31 renal; 0.0548 µM with OVCAR-8 ovarian; 0.206 µM in the test on BT-549 breast. Also, the 50% growth inhibitory concentration (GI50) was 0.0828 µM in the test with OVCAR-5 ovarian, 0.0102 µM with CAKI-1 renal and 0.0498 µM with NCI-H522 lung. Further, the TGI is over 3 µM in the test with NCI-H23 lung; over 3 µM with RXF 393 renal; over 3 µM in the test on EKVX NSCLC; 0.269 µM in the test with UO-31 renal; over 3 µM in the test with OVCAR-8 ovarian; over 3 µM with BT-549 breast. Further, the TGI in the test with OVCAR-5 ovarian, in the test with CAKI-1 renal, in the test on MCF7 breast and in the test on NCI-H522 lung was over 3 µM in each case.
As for `CCN(Cc1ccc(OC)cc1)c1ccc(CO)c(Cl)c1`, the GI50 in the test with NCI-H23 lung is 13.7 µM; with RXF 393 renal, 7.35 µM; in the test on EKVX NSCLC, 20.5 µM; with UO-31 renal it was 6.18 µM; in the test on OVCAR-8 ovarian it was 14 µM; in the test on BT-549 breast it was 12.7 µM. In addition, the concentration for 50% growth inhibition (GI50) in the test with OVCAR-5 ovarian was 0.162 µM; in the test on CAKI-1 renal it was 1.14 µM; in the test with MCF7 breast, 0.163 µM; in the test on NCI-H522 lung, 16.6 µM. The TGI is 60 µM in the test with NCI-H23 lung; 28.3 µM in the test with RXF 393 renal; over 83.3 µM with EKVX NSCLC; 39.6 µM in the test with UO-31 renal; 52.4 µM with OVCAR-8 ovarian; 37.4 µM in the test on BT-549 breast. The TGI is 0.636 µM in the test with OVCAR-5 ovarian, over 36.3 µM in the test on CAKI-1 renal, 15.7 µM in the test with MCF7 breast and 46.7 µM in the test on NCI-H522 lung.
Turning to `O=[N+]([O-])c1ccc(C2=NCCO2)cc1`, the GI50 in the test on NCI-H23 lung, in the test on RXF 393 renal, in the test with EKVX NSCLC, with UO-31 renal, in the test with OVCAR-8 ovarian and in the test with BT-549 breast was over 100 µM each time. Also, the GI50 with OVCAR-5 ovarian, with CAKI-1 renal, in the test on MCF7 breast and with NCI-H522 lung was over 100 µM each time. The total growth inhibition concentration (TGI) in the test on NCI-H23 lung, in the test with RXF 393 renal, in the test with EKVX NSCLC, in the test on UO-31 renal, in the test with OVCAR-8 ovarian and with BT-549 breast was over 100 µM throughout. Besides, the concentration for total growth inhibition (TGI) in the test with OVCAR-5 ovarian, in the test on CAKI-1 renal, in the test on MCF7 breast and in the test with NCI-H522 lung was over 100 µM each time.
Take `CS(=O)(=O)OCCN(CCOS(C)(=O)=O)c1ccc(C=Nc2ccc(-c3csc(COc4ccccc4)n3)cc2)cc1`: the total growth inhibition concentration (TGI) was 14 µM in the test with NCI-H23 lung; 1.85 µM in the test on RXF 393 renal; 16.5 µM in the test on EKVX NSCLC; 2.93 µM in the test with UO-31 renal; 19.6 µM in the test with OVCAR-8 ovarian; 37 µM with BT-549 breast. Further, the concentration for total growth inhibition (TGI) in the test with OVCAR-5 ovarian worked out at 12.6 µM; with CAKI-1 renal, 4.18 µM; in the test with MCF7 breast, 81.8 µM; in the test on NCI-H522 lung, 0.868 µM.
As for `CC1(C)N=C(N)N=C(N)N1c1ccc(OCCCNC(=O)Nc2ccc(S(=O)(=O)F)cc2)c(Cl)c1`, the GI50 with NCI-H23 lung was 0.488 µM; in the test on RXF 393 renal it was 12.9 µM; in the test with EKVX NSCLC, 0.874 µM; in the test with UO-31 renal, 69.5 µM; in the test on OVCAR-8 ovarian, 0.697 µM; in the test with BT-549 breast, 11.5 µM. The GI50 with OVCAR-5 ovarian is 0.419 µM; with CAKI-1 renal, 17.9 µM; in the test on MCF7 breast, 0.238 µM; in the test on NCI-H522 lung, 0.79 µM. For the same compound, the TGI with NCI-H23 lung, in the test with RXF 393 renal, with EKVX NSCLC, in the test with UO-31 renal, with OVCAR-8 ovarian and with BT-549 breast was over 100 µM each time. Also, the TGI in the test with OVCAR-5 ovarian was over 100 µM; in the test on CAKI-1 renal it was over 95 µM; in the test on MCF7 breast it was over 100 µM; in the test on NCI-H522 lung, over 100 µM.
For the compound `Cc1ccc(N)c(S)c1`, the TGI in the test on NCI-H23 lung is 36.3 µM; in the test with RXF 393 renal, 30.8 µM; with EKVX NSCLC, 31.5 µM; in the test with UO-31 renal, 26.7 µM; with OVCAR-8 ovarian it was 30.8 µM; with BT-549 breast, 36.4 µM. The TGI in the test with OVCAR-5 ovarian amounted to 42 µM; with CAKI-1 renal, 85 µM; with MCF7 breast, 38.8 µM; in the test on NCI-H522 lung, 33.5 µM.
In the case of `CC(=O)/C(=C\c1ccc(Cl)cc1)c1ccccc1`, the concentration for 50% growth inhibition (GI50) in the test on NCI-H23 lung was 0.26 µM; with RXF 393 renal, 0.0579 µM; in the test with EKVX NSCLC it was 1.82 µM; with UO-31 renal it was 1.02 µM; in the test on OVCAR-8 ovarian, 0.304 µM; in the test on BT-549 breast, 0.107 µM. Moreover, the GI50 with CAKI-1 renal was 0.549 µM; in the test with MCF7 breast, 0.0375 µM; in the test on NCI-H522 lung it was 0.0745 µM. In addition, the TGI with NCI-H23 lung was over 100 µM; in the test with EKVX NSCLC, over 100 µM; with UO-31 renal, over 57.9 µM; with OVCAR-8 ovarian, over 100 µM; in the test with BT-549 breast, 0.946 µM; with OVCAR-5 ovarian, over 100 µM. In addition, the results for the TGI in the test with CAKI-1 renal, in the test on MCF7 breast and in the test with NCI-H522 lung were over 100 µM, over 100 µM and 3.26 µM, respectively.
As for `O=c1c2ccccc2nc(-c2cccc([N+](=O)[O-])c2)n1O`, the concentration for total growth inhibition (TGI) was over 100 µM in the test on NCI-H23 lung; over 100 µM with RXF 393 renal; over 100 µM with EKVX NSCLC; over 100 µM in the test on UO-31 renal; 63.9 µM with OVCAR-8 ovarian; 80.8 µM with BT-549 breast. Besides, the TGI with OVCAR-5 ovarian is over 100 µM; in the test with CAKI-1 renal, over 100 µM; with MCF7 breast, over 100 µM; with NCI-H522 lung it was over 88.8 µM.
For `Cn1cc(C2NC(=O)c3ccccc3N2)c2ccccc21` (configuration not stated), the concentration for total growth inhibition (TGI) with NCI-H23 lung is over 100 µM; in the test on RXF 393 renal, 0.704 µM; in the test with EKVX NSCLC it was over 44.1 µM; with UO-31 renal, over 100 µM; with OVCAR-8 ovarian it was over 100 µM; in the test on BT-549 breast, over 100 µM. Further, the total growth inhibition concentration (TGI) in the test on OVCAR-5 ovarian is over 100 µM; in the test on CAKI-1 renal, over 100 µM; in the test with MCF7 breast, 5.1 µM; in the test with NCI-H522 lung, 2.56 µM.
In the case of `COc1cc(/C=C/C(=O)c2cccc(-n3cc(-c4ccccc4)[nH]c3=O)c2)cc(OC)c1OC`, the GI50 with NCI-H23 lung was 1.43 µM; in the test on RXF 393 renal it was 1.71 µM; with EKVX NSCLC, 2.3 µM; in the test with UO-31 renal it was 1.51 µM; in the test on OVCAR-8 ovarian, 1.62 µM; in the test on BT-549 breast it was 1.93 µM. The GI50 is 1.88 µM with OVCAR-5 ovarian, 1.75 µM in the test on CAKI-1 renal, 0.31 µM with MCF7 breast and 0.958 µM in the test with NCI-H522 lung. Besides, the concentration for total growth inhibition (TGI) in the test with NCI-H23 lung stood at 3.29 µM; in the test on RXF 393 renal, 3.53 µM; in the test with EKVX NSCLC, 11.4 µM; in the test on UO-31 renal, 4.56 µM; in the test with OVCAR-8 ovarian it was 16.4 µM; with BT-549 breast it was 5.47 µM. For the same compound, the concentration for total growth inhibition (TGI) in the test on OVCAR-5 ovarian came to 3.74 µM; in the test on CAKI-1 renal, 4.57 µM; in the test on MCF7 breast, 1.12 µM; in the test with NCI-H522 lung it was 2.52 µM.
With `O=c1[nH]c2ccccc2n1C1CCNCC1`, the GI50 in the test on NCI-H23 lung, in the test on RXF 393 renal, with EKVX NSCLC, with UO-31 renal, with OVCAR-8 ovarian and with BT-549 breast was over 100 µM each time. Moreover, the GI50 with OVCAR-5 ovarian, in the test with CAKI-1 renal, in the test on MCF7 breast and in the test with NCI-H522 lung was over 100 µM each time. Further, the TGI in the test on NCI-H23 lung, with RXF 393 renal, in the test on EKVX NSCLC, with UO-31 renal, in the test with OVCAR-8 ovarian and in the test on BT-549 breast was over 100 µM in each case. Besides, the TGI in the test on OVCAR-5 ovarian, in the test with CAKI-1 renal, with MCF7 breast and in the test on NCI-H522 lung was over 100 µM throughout.
Consider `O=C(O)/C=C\C(=O)Nc1ccc2c(c1)-c1ccccc1C2`, for which the TGI in the test with NCI-H23 lung, with RXF 393 renal, in the test with EKVX NSCLC, in the test on UO-31 renal, in the test with OVCAR-8 ovarian and in the test with BT-549 breast was over 100 µM throughout. Moreover, the TGI with OVCAR-5 ovarian, in the test with CAKI-1 renal, in the test with MCF7 breast and in the test with NCI-H522 lung was over 100 µM throughout.

Usually GI50 stands for the concentration giving 50% growth inhibition. In general, TGI refers to the concentration at which net growth stops. Read a low TGI as more potent growth arrest.
